Source: paper PMC9898036, “VIP152 is a selective CDK9 inhibitor with pre-clinical in vitro and in vivo efficacy in chronic lymphocytic leukemia” (Leukemia, 2022)
Where a chain is given by its changes, count along the chain named. Where two headings read alike, the source gives them in different places.

How the values were obtained:
ABL1 [1] = target: ABL1 (Homo sapiens, UniProt P00519); experiment: KINOMEscan: ABL1; type: binding; settings: read-out: Percent Control; for remaining binding at 0.1 µM: 100 nM; for remaining binding at 1 µM: 1000 nM
Description: (§1) The structure and synthesis of VIP152 were recently described by Lücking et al.. (Fig. 1A); however, the selectivity of the molecule in cellular systems has yet to be explored. […] We also performed this experiment at 1000 nM, where CDK9 was inhibited at 99%. […] We found a strong concordance between our data and those of Lücking when comparing the most inhibited kinases. Potential off-target effects of VIP152 were next tested in vitro at a concentration of 10 µM for off-target activity against a broad range of receptors, transporters, ion channels, and enzymes (n = 138) using the Eurofins Diversity Panel.
(§2) Kinomescan Kinase Profiling Assay
(§3) Kinomescan Assay was performed at DiscoverRX and described in Fabian, et al. 2005, Nat.
(§4) Biotechnol. In brief, kinases were produced and subsequently tagged with DNA for qPCR detection.
(§5) Streptavidin-coated magnetic beads were bound to biotinylated kinase ligands to serve as a solid support.
(§6) VIP152 was dissolved in DMSO and tested across a 10 serial threefold dilution set and compared to a test compound and a DMSO control. Kinases which were inhibited by VIP152 would not be bound to the solid-support resulting in decreased substrate for the qPCR reaction. Kinome map was produced via TreeSpot Analysis from DiscoverRX. […]

ABL1 [2] = target: T1, ABL1 (Homo sapiens, UniProt P00519, F317I); experiment: KINOMEscan: ABL1; type: binding; settings: read-out: Percent Control; for remaining binding at 0.1 µM: 100 nM; for remaining binding at 1 µM: 1000 nM
T1 sequence (P00519 229-512 F317I): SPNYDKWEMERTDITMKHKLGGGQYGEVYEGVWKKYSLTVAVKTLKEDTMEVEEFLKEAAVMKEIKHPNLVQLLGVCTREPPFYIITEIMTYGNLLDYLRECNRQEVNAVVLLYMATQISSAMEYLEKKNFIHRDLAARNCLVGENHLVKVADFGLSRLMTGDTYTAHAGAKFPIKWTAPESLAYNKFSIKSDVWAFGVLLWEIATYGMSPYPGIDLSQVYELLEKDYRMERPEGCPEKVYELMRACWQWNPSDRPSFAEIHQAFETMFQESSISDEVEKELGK
Description: as §1, §2, §3, §4, §5, §6

ABL1 [3] = target: T2, ABL1 (Homo sapiens, UniProt P00519, H396P); experiment: KINOMEscan: ABL1; type: binding; settings: read-out: Percent Control; for remaining binding at 0.1 µM: 100 nM; for remaining binding at 1 µM: 1000 nM
T2 sequence (P00519 229-512 H396P): T1 sequence (P00519 229-512 F317I) with I89F, H168P
Description: as §1, §2, §3, §4, §5, §6

ABL1 [4] = target: ABL1 (Homo sapiens, UniProt P00519, M351T); experiment: KINOMEscan: ABL1; type: binding; settings: ABL1(M351T)-phosphorylated, read-out: Percent Control
Description: as §1, §2, §3, §4, §5, §6

ABL1 [5] = target: T3, ABL1 (Homo sapiens, UniProt P00519, Q252H); experiment: KINOMEscan: ABL1; type: binding; settings: read-out: Percent Control; for remaining binding at 0.1 µM: 100 nM; for remaining binding at 1 µM: 1000 nM
T3 sequence (P00519 229-512 Q252H): T1 sequence (P00519 229-512 F317I) with Q24H, I89F
Description: as §1, §2, §3, §4, §5, §6

ABL1 [6] = target: ABL1 (Homo sapiens, UniProt P00519, Y253F); experiment: KINOMEscan: ABL1; type: binding; settings: ABL1(Y253F)-phosphorylated, read-out: Percent Control
Description: as §1, §2, §3, §4, §5, §6

ABL1 [7] = experiment: KINOMEscan: ABL1; type: binding, human; settings: 1000 nM
Description: as §1, §2, §3, §4, §5, §6

[8] = target: Serotonin (5-Hydroxytryptamine) 5-HT1A) (Homo sapiens, UniProt P08908); experiment: Eurofins Diversity Panel; type: binding; settings: hum, Conc. 10 μM
[9] = target: Serotonin (5-Hydroxytryptamine) 5-HT2B) (Homo sapiens, UniProt P41595); experiment: Eurofins Diversity Panel; type: binding; settings: hum, Conc. 10 μM
STK35 = STK35 (Homo sapiens, UniProt Q8TDR2); experiment: KINOMEscan: STK35; type: binding; settings: 100 nM, read-out: Percent Control
ACVR1 = ACVR1 (Homo sapiens, UniProt Q04771); experiment: KINOMEscan: ACVR1; type: binding; settings: 1000 nM, read-out: Percent Control
ALK(C1156Y) = ALK(C1156Y) (Homo sapiens, UniProt Q9UM73, C1156Y); experiment: KINOMEscan: ALK(C1156Y); type: binding; settings: 1000 nM, read-out: Percent Control
ALK(L1196M) = ALK(L1196M) (Homo sapiens, UniProt Q9UM73, L1196M); experiment: KINOMEscan: ALK(L1196M); type: binding; settings: 1000 nM, read-out: Percent Control
BRAF(V600E) = BRAF(V600E) (Homo sapiens, UniProt P15056, V600E); experiment: KINOMEscan: BRAF(V600E); type: binding; settings: 1000 nM, read-out: Percent Control
DAPK1 = DAPK1 (Homo sapiens, UniProt P53355); experiment: KINOMEscan: DAPK1; type: binding; settings: 1000 nM, read-out: Percent Control
MST1R = MST1R (Homo sapiens, UniProt Q04912); experiment: KINOMEscan: MST1R; type: binding; settings: 1000 nM, read-out: Percent Control

BRAF(V600E), sequence (P15056 whole entry V600E): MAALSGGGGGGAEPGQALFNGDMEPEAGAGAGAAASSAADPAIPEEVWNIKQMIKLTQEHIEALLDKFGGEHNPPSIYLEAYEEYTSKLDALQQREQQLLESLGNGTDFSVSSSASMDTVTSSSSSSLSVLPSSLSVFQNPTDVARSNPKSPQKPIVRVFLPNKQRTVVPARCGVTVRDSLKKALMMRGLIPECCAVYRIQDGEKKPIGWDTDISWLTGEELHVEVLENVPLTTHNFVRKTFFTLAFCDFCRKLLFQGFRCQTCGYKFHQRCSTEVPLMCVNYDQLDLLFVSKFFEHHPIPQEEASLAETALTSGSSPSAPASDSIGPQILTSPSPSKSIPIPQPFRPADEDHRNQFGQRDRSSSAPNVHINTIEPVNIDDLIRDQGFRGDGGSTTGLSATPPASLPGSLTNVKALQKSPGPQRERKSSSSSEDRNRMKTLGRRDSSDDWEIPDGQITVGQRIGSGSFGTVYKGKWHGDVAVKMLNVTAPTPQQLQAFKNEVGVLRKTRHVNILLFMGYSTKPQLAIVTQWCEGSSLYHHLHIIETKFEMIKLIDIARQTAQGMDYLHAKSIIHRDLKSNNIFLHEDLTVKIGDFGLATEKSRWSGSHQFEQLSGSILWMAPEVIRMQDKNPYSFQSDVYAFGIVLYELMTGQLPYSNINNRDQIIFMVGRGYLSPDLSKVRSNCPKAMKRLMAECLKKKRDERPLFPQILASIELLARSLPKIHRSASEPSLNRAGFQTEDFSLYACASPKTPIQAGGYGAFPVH
DAPK1, sequence (P53355 whole entry): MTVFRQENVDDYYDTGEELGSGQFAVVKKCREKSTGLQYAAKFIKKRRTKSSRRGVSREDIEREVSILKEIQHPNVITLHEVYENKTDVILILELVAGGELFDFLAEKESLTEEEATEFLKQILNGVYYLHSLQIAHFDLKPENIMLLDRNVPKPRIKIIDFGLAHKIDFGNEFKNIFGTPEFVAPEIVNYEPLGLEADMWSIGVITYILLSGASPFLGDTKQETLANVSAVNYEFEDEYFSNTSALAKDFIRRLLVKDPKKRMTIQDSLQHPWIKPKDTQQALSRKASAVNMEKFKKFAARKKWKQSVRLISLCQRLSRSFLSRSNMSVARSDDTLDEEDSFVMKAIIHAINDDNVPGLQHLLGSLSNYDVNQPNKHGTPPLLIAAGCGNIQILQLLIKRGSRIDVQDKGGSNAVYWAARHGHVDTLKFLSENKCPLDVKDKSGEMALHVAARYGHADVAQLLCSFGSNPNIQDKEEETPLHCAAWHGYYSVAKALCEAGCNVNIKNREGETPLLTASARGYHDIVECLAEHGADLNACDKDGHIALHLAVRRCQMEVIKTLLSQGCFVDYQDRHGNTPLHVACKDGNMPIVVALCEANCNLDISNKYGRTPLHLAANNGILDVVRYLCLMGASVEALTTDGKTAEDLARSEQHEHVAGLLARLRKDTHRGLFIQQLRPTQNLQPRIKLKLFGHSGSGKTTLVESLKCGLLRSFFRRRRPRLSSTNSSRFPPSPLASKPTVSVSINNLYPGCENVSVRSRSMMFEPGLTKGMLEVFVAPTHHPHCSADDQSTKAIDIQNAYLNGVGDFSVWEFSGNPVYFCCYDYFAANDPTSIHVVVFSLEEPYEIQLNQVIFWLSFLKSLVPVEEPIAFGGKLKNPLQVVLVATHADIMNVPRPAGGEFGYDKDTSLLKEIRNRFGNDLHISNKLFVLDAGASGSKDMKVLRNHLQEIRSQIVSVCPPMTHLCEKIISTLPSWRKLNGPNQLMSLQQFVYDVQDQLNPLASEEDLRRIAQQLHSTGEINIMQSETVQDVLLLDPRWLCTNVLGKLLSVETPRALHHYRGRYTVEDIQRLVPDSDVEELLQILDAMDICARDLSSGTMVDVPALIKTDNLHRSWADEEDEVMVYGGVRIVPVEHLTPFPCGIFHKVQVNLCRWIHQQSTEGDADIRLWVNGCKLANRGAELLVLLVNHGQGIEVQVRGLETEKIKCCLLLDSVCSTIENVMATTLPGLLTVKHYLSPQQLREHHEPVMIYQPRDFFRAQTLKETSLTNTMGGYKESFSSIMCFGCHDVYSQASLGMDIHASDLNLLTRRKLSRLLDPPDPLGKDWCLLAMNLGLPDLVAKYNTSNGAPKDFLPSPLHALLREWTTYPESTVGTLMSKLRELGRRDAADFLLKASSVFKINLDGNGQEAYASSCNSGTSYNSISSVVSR
Serotonin (5-Hydroxytryptamine) 5-HT2B), sequence (P41595 whole entry): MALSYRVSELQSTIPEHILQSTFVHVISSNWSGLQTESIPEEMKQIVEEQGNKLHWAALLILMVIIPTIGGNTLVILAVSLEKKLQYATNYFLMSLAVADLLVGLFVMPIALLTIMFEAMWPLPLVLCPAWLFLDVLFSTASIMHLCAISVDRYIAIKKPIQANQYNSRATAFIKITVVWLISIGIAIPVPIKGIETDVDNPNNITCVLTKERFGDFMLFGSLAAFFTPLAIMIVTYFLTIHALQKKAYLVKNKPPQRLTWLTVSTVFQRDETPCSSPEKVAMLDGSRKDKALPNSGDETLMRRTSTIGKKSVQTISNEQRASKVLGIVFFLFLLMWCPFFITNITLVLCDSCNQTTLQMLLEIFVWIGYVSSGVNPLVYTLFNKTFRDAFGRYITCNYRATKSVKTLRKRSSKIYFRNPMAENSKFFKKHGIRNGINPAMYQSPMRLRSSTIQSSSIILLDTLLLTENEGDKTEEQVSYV
ALK(L1196M), sequence (Q9UM73 19-1620 L1196M): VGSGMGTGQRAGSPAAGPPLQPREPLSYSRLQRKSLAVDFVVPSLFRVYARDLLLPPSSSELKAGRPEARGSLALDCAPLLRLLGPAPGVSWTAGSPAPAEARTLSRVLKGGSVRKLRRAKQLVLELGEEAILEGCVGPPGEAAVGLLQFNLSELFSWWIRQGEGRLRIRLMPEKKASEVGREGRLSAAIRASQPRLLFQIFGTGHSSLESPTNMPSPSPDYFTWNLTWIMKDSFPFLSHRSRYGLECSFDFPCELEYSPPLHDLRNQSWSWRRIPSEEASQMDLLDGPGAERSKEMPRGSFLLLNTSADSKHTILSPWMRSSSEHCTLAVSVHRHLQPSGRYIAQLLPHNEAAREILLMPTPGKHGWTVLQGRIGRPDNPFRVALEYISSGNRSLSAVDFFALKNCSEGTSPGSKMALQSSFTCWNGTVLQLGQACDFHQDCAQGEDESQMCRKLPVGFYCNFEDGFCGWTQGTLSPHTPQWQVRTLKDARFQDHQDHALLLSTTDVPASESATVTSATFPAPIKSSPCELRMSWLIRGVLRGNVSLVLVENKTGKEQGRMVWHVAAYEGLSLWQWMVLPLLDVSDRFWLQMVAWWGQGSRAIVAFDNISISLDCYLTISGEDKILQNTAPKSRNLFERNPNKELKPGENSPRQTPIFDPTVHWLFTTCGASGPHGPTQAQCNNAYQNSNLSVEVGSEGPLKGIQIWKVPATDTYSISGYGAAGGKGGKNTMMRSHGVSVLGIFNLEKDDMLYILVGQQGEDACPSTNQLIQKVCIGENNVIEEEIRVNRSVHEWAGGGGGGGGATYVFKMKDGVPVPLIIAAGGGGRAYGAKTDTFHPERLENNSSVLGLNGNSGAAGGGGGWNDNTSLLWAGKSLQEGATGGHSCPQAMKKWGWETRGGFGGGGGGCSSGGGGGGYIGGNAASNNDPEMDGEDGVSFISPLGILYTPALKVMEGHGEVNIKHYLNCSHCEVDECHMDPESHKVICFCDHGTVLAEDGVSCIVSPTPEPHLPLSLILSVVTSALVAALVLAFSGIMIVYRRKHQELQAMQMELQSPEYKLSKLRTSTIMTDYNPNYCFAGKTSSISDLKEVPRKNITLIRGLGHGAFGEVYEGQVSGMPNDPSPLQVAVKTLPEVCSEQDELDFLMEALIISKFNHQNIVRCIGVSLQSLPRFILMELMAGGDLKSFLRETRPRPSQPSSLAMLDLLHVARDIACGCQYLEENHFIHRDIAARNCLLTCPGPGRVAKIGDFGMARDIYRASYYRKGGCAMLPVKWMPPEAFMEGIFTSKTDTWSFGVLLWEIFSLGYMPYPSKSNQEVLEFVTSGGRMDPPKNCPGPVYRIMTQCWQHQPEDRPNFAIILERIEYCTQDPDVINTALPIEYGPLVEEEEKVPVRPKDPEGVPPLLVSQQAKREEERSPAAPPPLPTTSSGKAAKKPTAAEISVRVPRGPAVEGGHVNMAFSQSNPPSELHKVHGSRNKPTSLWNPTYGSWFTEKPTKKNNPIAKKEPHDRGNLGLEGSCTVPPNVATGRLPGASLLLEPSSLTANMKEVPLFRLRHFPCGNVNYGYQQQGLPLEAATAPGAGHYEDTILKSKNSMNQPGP
ALK(C1156Y), sequence (Q9UM73 19-1620 C1156Y): as the sequence (Q9UM73 19-1620 L1196M) above, with C1138Y, M1178L counted along it
ACVR1, sequence (Q04771 21-509): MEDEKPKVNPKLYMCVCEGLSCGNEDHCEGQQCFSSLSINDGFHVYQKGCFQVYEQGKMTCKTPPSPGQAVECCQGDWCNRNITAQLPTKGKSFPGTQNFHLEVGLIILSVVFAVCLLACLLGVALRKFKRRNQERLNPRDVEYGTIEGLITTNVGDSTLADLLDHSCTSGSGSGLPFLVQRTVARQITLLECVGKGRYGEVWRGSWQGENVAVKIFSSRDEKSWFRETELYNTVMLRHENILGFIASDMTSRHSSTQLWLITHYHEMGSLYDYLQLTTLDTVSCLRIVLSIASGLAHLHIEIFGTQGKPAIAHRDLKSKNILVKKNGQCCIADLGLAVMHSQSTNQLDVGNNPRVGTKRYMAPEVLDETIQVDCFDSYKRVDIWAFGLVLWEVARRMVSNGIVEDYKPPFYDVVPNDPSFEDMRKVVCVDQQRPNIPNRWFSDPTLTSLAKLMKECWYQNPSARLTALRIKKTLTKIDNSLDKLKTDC

Q: For `COc1cc(F)ccc1-c1cc(Nc2cc(CS(C)(=N)=O)ccn2)ncc1F` (stereo not drawn) [VIP152], which remaining binding at 0.1 µM (ABL1 [1]; ABL1-nonphosphorylated) is on record?
A: Its remaining binding at 0.1 µM is 64%.

Q: And the remaining binding at 1 µM (ABL1 [1]; ABL1-nonphosphorylated)?
A: The remaining binding at 1 µM was 21%.

Q: What about the remaining binding at 0.1 µM (ABL1 [1]; ABL1-phosphorylated) of the same compound?
A: The remaining binding at 0.1 µM was 73%.

Q: What about the remaining binding at 1 µM (ABL1 [1]; ABL1-phosphorylated) of the same compound?
A: The remaining binding at 1 µM was 54%.

Q: And the remaining binding at 0.1 µM (ABL1 [2]; ABL1(F317I)-nonphosphorylated)?
A: The remaining binding at 0.1 µM was 100%.

Q: And the remaining binding at 1 µM (ABL1 [2]; ABL1(F317I)-nonphosphorylated)?
A: Its remaining binding at 1 µM is 84%.

Q: And the remaining binding at 0.1 µM (ABL1 [2]; ABL1(F317I)-phosphorylated)?
A: Its remaining binding at 0.1 µM is 95%.

Q: What about the remaining binding at 1 µM (ABL1 [2]; ABL1(F317I)-phosphorylated) of the same compound?
A: The remaining binding at 1 µM was 33%.

Q: What about the remaining binding at 0.1 µM (ABL1 [3]; ABL1(H396P)-nonphosphorylated) of the same compound?
A: The remaining binding at 0.1 µM was 70%.

Q: What about the remaining binding at 1 µM (ABL1 [3]; ABL1(H396P)-nonphosphorylated) of the same compound?
A: The remaining binding at 1 µM was 7.6%.

Q: And the remaining binding at 0.1 µM (ABL1 [3]; ABL1(H396P)-phosphorylated)?
A: Its remaining binding at 0.1 µM is 100%.

Q: What about the remaining binding at 1 µM (ABL1 [3]; ABL1(H396P)-phosphorylated) of the same compound?
A: Its remaining binding at 1 µM is 52%.

Q: What about the remaining binding at 0.1 µM (ABL1 [4]; 100 nM) of the same compound?
A: Its remaining binding at 0.1 µM is 86%.

Q: What about the remaining binding at 1 µM (ABL1 [4]; 1000 nM) of the same compound?
A: Its remaining binding at 1 µM is 43%.

Q: What about the remaining binding at 0.1 µM (ABL1 [5]; ABL1(Q252H)-nonphosphorylated) of the same compound?
A: The remaining binding at 0.1 µM was 72%.

Q: And the remaining binding at 1 µM (ABL1 [5]; ABL1(Q252H)-nonphosphorylated)?
A: The remaining binding at 1 µM was 25%.

Q: What about the remaining binding at 0.1 µM (ABL1 [5]; ABL1(Q252H)-phosphorylated) of the same compound?
A: Its remaining binding at 0.1 µM is 100%.

Q: And the remaining binding at 1 µM (ABL1 [5]; ABL1(Q252H)-phosphorylated)?
A: Its remaining binding at 1 µM is 46%.

Q: What about the remaining binding at 0.1 µM (ABL1 [6]; 100 nM) of the same compound?
A: The remaining binding at 0.1 µM was 100%.

Q: What about the remaining binding at 1 µM (ABL1 [6]; 1000 nM) of the same compound?
A: Its remaining binding at 1 µM is 45%.

Q: And the “inhibition of ABL1” value (ABL1 [7])?
A: Its value is 96.8%.

Q: What about the inhibition at 10 µM [8] of the same compound?
A: Its inhibition at 10 µM is 13%.

Q: What about the inhibition at 10 µM [9] of the same compound?
A: Its inhibition at 10 µM is 56%.

Q: What about the remaining binding at 0.1 µM (STK35) of the same compound?
A: The remaining binding at 0.1 µM was 100%.

Q: What about the remaining binding at 1 µM (ACVR1) of the same compound?
A: Its remaining binding at 1 µM is 64%.

Q: What about the remaining binding at 1 µM (ALK(C1156Y)) of the same compound?
A: Its remaining binding at 1 µM is 71%.

Q: And the remaining binding at 1 µM (ALK(L1196M))?
A: Its remaining binding at 1 µM is 91%.

Q: What about the remaining binding at 1 µM (BRAF(V600E)) of the same compound?
A: Its remaining binding at 1 µM is 92%.

Q: What about the remaining binding at 1 µM (DAPK1) of the same compound?
A: Its remaining binding at 1 µM is 87%.

Q: And the remaining binding at 1 µM (MST1R)?
A: The remaining binding at 1 µM was 70%.
